Experimental data reported in patent US9180164B2, “Compounds and methods of modulating angiogenesis” (THE CLEVELAND CLINIC FOUNDATION, priority 2011, dated 2015).

Assays:
VEGFR-2 = biological target: T1, VEGFR-2 (Mus musculus, UniProt P35918); assay: VEGFR-2 phosphorylation time course in mouse lung endothelial cells; format: cell-based; conditions: 20 ng/ml VEGF
T1 construct: endogenous in cells; host or cells: primary mouse lung endothelial cells (WT and DiYF mice)
Description: Serum starved wild type and DiYF endothelial cells were also treated with 20 ng/ml VEGF for 0-60 mins. Cell lysates were analyzed by Western blot using anti-integrin β3 [pY^747], anti-integrin [pY^759], anti-p-VEGFR-2, anti-VEGFR-2, anti-p-ERK1/2, anti-ERK1/2, anti-p-Akt, anti-Akt, anti-p-P38MAPK and anti-MAPK antibody. The wild type and DiYF endothelial cells were lysed and equal proteins from total cell lysates were subjected SDS-PAGS and analyzed by western blot using anti-VEGFR-2 and anti-CD-31 antibody.

[1] = system: mouse lung endothelial cells; conditions: 20 ng/ml VEGF, 8 h
Description: The formation of vascular tube-like structures by wild type and DiYF mouse lung endothelial cells were assessed on the basement membrane matrix preparation. Six well plates were coated with 0.5 ml of Matrigel according to the manufacturer's instructions. Wild type and DiYF mouse lung endothelial cells were detached from the tissue culture flasks using 20 mM EDTA. Cells were washed twice with sterile 1×PBS and seeded on Matrigel coated plate. Medium was supplemented with or without 20 ng/ml VEGF and further incubated at 37° C. for 8 h. The tube formation was observed using an inverted phase contrast microscope (Leica) and photographs were taken from each well. Using ImagePro software, the degree of tube formation was quantified by measuring the length of tubes in random fields.

αvβ3 integrin = assay: WOW-1 binding assay, HUVECs; format: cell-based, Human; conditions: FACS analysis
Description: Semiconfluent HUVECs were serum starved for 4 h and further stimulated with 20 ng/mL VEGF-A165 or VEGFDΔNΔC. WOW-1 Fab was added to a final concentration of 30 μg/mL, followed by addition of FITC-conjugated goat anti-mouse IgG at 10 μg/mL. After 30 min cells were fixed with 3.7% formaldehyde in PBS for 15 min, washed twice with PBS, and fluorescence-activated cell sorting (FACS) was performed using a FACS Calibur (Becton Dickinson, San Jose, Calif.) and data were analyzed using CellQuest software.

T1 sequence (P35918 20-1345): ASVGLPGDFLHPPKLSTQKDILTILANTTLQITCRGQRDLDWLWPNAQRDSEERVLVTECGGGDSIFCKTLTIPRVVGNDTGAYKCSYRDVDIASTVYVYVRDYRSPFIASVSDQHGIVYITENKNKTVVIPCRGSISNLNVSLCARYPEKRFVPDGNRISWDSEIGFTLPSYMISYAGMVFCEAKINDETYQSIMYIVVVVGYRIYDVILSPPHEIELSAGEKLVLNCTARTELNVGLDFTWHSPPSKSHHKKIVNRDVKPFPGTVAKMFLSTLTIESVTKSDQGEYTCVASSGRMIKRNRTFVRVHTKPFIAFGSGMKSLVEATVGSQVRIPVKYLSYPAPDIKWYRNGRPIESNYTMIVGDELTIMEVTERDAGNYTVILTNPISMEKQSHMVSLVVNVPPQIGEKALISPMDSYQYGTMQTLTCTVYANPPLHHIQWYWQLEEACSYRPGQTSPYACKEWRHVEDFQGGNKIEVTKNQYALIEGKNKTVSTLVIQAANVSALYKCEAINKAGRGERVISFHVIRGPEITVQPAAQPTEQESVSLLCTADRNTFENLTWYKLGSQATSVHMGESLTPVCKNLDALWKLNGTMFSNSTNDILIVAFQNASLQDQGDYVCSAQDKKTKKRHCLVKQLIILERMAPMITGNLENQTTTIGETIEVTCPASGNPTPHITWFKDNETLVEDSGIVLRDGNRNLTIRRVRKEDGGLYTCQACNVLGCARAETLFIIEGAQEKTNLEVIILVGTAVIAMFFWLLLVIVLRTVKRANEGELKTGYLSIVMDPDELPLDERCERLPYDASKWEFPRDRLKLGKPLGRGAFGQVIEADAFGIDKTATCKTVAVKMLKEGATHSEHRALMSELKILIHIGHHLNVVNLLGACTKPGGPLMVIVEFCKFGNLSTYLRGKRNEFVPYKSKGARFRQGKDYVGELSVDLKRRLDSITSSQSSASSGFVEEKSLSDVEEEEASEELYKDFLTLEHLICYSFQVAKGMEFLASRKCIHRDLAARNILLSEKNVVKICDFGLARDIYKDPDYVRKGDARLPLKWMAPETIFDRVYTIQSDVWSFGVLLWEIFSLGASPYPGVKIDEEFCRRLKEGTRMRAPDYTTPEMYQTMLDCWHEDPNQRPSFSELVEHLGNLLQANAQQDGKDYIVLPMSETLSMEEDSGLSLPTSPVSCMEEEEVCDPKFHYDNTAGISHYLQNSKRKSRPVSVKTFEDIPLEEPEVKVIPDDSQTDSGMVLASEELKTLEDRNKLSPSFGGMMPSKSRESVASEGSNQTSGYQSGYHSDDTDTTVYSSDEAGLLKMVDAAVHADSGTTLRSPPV

For VEGF, the “maximum increase in VEGFR-2 phosphorylation over control” value (VEGFR-2; DiYF EC) was 2.5 fold, the “maximum increase in VEGFR-2 phosphorylation over control” value (VEGFR-2; WT EC) was 6 fold and the “effect on length of the tubes” value ([1]; DiYF EC) was “a little effect”. The “increase in the length of the tubes” value ([1]; WT EC) was “about 3 fold” and the “increase of WOW-1 binding to EC compared to resting cells” value (αvβ3 integrin) was 6 fold.
